Measured values reported in US4719200A, “Amino acid derivatives and antihypertensive drugs containing the same” (Ajinomoto Co., Inc., priority 1984, dated 1988).
Peptide text beside a SMILES is read from it. * marks the point of attachment. Cbz = O=C(OCc1ccccc1)*; Bz = O=C(c1ccccc1)*

System: spontaneously hypertensive rates (SHR rats)
Assay: Measurement of change in blood pressure (systolic, indirect, conscious rats) after one oral dose
Assay type: in vivo, rat
Settings: for Systolic Blood Pressure, Lowest Value: after administration; for Δ Blood Pressure (systolic): lowest value minus value before administration
Method: The antihypertensive activities of the amino acid derivatives as prepared above were determined.
As subject animals, there were used 5 spontaneously hypertensive rates (SHR rats) which had been sufficiently trained and confirmed to be hypertensive (mode, the body weight of 400 g) per a sample.
As an instrument for measuring the blood pressure there was used Programmed Electro-Sphygmomanometer PE-300 (Narco Co., U.S.A.), and the blood pressure was indirectly measured on conscious rats.
An aqueous solution of a sample (0.05 m mole/kg) was once force-fed into the stomach by means of a […] probe. As a control, the water as deionized was fed to the same animals as above.

[1] = second table (Examples 25-43), before administration
[2] = SHR rats, 5 per sample, before single force-feeding into the stomach of 0.05 m mole/kg aqueous solution
[3] = SHR rats, single force-feeding into the stomach, 0.05 m mole/kg

Row | Compound | Hrs. After Admin. (of lowest systolic blood pressure value) (second table (Examples 25-43)) [h] | Systolic Blood Pressure, Lowest Value (second table (Examples 25-43)) | Systolic Blood Pressure, Value Before Administration [1] | Δ Blood Pressure (systolic) (second table (Examples 25-43)) | Systolic Blood Pressure, Value Before Administration [2] [mm Hg] | Hours after administration (of lowest systolic blood pressure value) [3] [h] | Systolic Blood Pressure, Lowest value after administration [3] [mm Hg] | Δ Blood Pressure (systolic) [3] [mm Hg]
1 | CCS(=O)(=O)N[C@@H](CCCNC(=N)N)C(=O)N1CCC[C@H]1C(=O)N1CCC[C@H]1C(=O)O [Example 41, N--ethane sulfonyl-L-arginyl-L-prolyl-L-proline] | 7 | 185 | 204 | -19 |  |  |  | 
2 | O=C(N[C@@H](Cc1ccccc1)C(=O)N1CCC[C@H]1C(=O)N1CCC[C@H]1C(=O)O)c1ccccc1.[Na] [Example 26, N--Benzoyl-L-phenylalanyl-L-prolyl-L-proline sodium salt] (Bz-Phe-Pro-Pro-OH) | 8 | 194 | 228 | -34 |  |  |  | 
3 | N-phenylthiocarbamoyl-L-alanyl-L-prolyl-L-proline L-arginine salt [Example 18] |  |  |  |  | 224 | 24 | 211 | -13
4 | C[C@H](NC(=O)c1cccs1)C(=O)N1CCC[C@H]1C(=O)N1CCC[C@H]1C(=O)O [Example 6, N-(2-thenoyl)-L-alanyl-L-prolyl-L-proline] |  |  |  |  |  |  | 182 | -20
5 | CCOC(=O)NCC(=O)N1CCC[C@H]1C(=O)N1CCC[C@H]1C(=O)O.[Na] [Example 32, N--ethoxycarbonyl-glycyl-L-prolyl-L-proline sodium salt] | 8 | 193 | 215 | -22 |  |  |  | 
6 | CC[C@H](C)[C@H](NC(=O)c1ccccc1)C(=O)N1CCC[C@H]1C(=O)N1CCC[C@H]1C(=O)O [Example 25, N--benzoyl-L-isoleucyl-L-prolyl-L-proline] (Bz-Ile-Pro-Pro-OH) | 8 | 201 | 229 | -28 |  |  |  | 
7 | N-(benzylthio) thiocarbonyl-L-alanyl-L-prolyl-L-proline L-arginine salt [Example 9] |  |  |  |  | 216 | 24 | 191 | -25
8 | C[C@H](NC(=O)OCc1ccccc1)C(=O)N1CCC[C@H]1C(=O)N1CCC[C@H]1C(=O)O.NC(N)=NCCC[C@H](N)C(=O)O [Example 15, N-benzyloxycarbonyl-L-alanly-L-prolyl-L-proline L-arginine salt] (Cbz-Ala-Pro-Pro-OH) |  |  |  |  | 205 | 4 | 172 | -33
9 | CCS(=O)(=O)NCC(=O)N1CCC[C@H]1C(=O)N1CCC[C@H]1C(=O)O [Example 39, N--ethanesulfonyl-glycyl-L-prolyl-L-proline] | 8 | 215 | 232 | -18 |  |  |  | 
